Source: US6743576B1, “Database system for predictive cellular bioinformatics” (Cytokinetics, Inc., priority 1999, dated 2004)

What was measured:
Format in all cases: cell-based
HeLa cells [1] = test: Automated Hoechst image analysis of HeLa cells treated with 6 known compounds; conditions: 10 ug/mL, 24 hours, 10x objective, FIG. 11
Description: In a third experiment, the purpose was to determine whether the automated analysis methods developed in the first experiment can detect differences in Hoechst morphology in the presence of 6 known compounds at one concentration and exposure time in one cell line. In this experiment, HeLa cells were separately treated with 6 compounds with known mechanism of action. The quantitative methods described in the first experiment were applied to the Hoechst images.
Approximately 5,000 HeLa cells per well were plated in a Costar black-walled 96 well tissue culture treated plate and left to recover in the incubator for 24 hours. After this time, 10 ug/mL of cytochalasin D (CD), Taxol, hydroxyurea, vinblastine, nocodazole, and staurosporine was added to different wells at a 1:100 addition in DMSO. The cells were incubated in the presence of drug for 24 more hours. After 24 hours, the cells were removed and fixed as in the first experiment. Then, 9 images per well were collected of the Hoechst staining using a 10× objective.
The low magnification images taken of Hoechst were run through the automated image analysis method described in the first experiment. Plots of the average intensity and area were made of each compound. […] The scatter plots of each compound are visually distinct. […] Furthermore, the number of cells per well was very different (data not shown).

MDCK cells = test: Effects of Taxol on MDCK cells, Hoechst morphologies manually counted; conditions: 4.5 hours, 10 μM-1pM, FIG. 10
Description: In a second experiment, the effects of Taxol on MDCK cells and the different types of morphological effects were observed. A plurality of MDCK cells grown in 96 well plates were treated with Taxol for 4.5 hours at different concentrations (10 μM−1pM). They were then fixed, labeled with Hoechst, and imaged.
This experiment used a labeling protocol comprising: MEOH fix at −20°, Wash in PBS, Block in PBS/BSA/Serum/Triton-X 100, Incubate with 5 μg/ml Hoechst 10 minutes, and wash.
Cells were inspected for different morphologies and manually counted at each different drug concentration in one well. […] The next step is to test the automated Hoechst analysis of the first experiment with multiple drugs.

HeLa cells [2] = test: High magnification Hoechst and phalloidin images of HeLa cells in the presence of drugs; conditions: 10 ug/mL, 24 hours, 40x objective, vs DMSO control, FIG. 12
Description: A fourth experiment was performed to obtain high magnification images of two markers in the presence of drugs. In this experiment, HeLa cells were treated with 80 generic compounds with known mechanism of action. The quantitative methods described in the first experiment were applied to the Hoechst images.
Approximately 5,000 HeLa cells per well were plated in a Costar black walled 96 well tissue culture-treated plate and left to recover in the incubator for 24 hours. After this time, 10 ug/mL of each compound from the Killer Plate from Microsource Discovery Systems (Gaylordsville, Conn.) was added to different wells at a 1:100 addition in DMSO. The cells were incubated in the presence of drug for 24 more hours. After 24 hours, the cells were removed and fixed as in the first experiment. In addition to being labeled with Hoechst 33342 (against chromatin), cells were also labeled with 1 unit of rhodamine-conjugated phalloidin (against actin) for 30 minutes.
The 96 well plate was imaged twice. Once, 9 images per well were collected of the Hoechst staining using a 10× objective. After this, one image per well of both the phalloidin and Hoechst staining was collected using a 40× objective.
The resulting high magnification images were analyzed qualitatively and distinct pattern differences were detected in both the Hoechst and phalloidin images. […] The top row is the Hoechst staining, and the bottom row is the phalloidin staining from the same well. The columns show the images from wells treated with just DMSO (control), cytochalasin D, and Colchicine. Notice that the morphology of each marker is different in the presence of each drug.

| SMILES | cell (Hoechst object) size/area compared to control (HeLa cells [1]) | actin cytoskeleton morphology in the phalloidin image (HeLa cells [2]) | other results |
| --- | --- | --- | --- |
| NC(=O)NO [Hydroxyurea, hydroxyurea] | larger | – | brightness (average Hoechst intensity) compared to control (HeLa cells [1]): brighter |
| CC(=O)O[C@H]1C(=O)[C@@]2(C)[C@H]([C@H](OC(=O)c3ccccc3)[C@]3(O)C[C@H](OC(=O)[C@H](O)[C@@H](NC(=O)c4ccccc4)c4ccccc4)C(C)=C1C3(C)C)[C@]1(OC(C)=O)CO[C@@H]1C[C@@H]2O [Taxol, paclitaxel] | – | – | number of normal mitotic cells as a function of drug concentration (MDCK cells): fewer number of normal mitotic cells were detected; proportion of cells undergoing apoptosis as a function of drug concentration (MDCK cells): larger proportion of cells underwent apoptosis |
| COc1cc2c(c(OC)c1OC)-c1ccc(OC)c(=O)cc1[C@@H](NC(C)=O)CC2 [colchicine] | – | there is an effect on the actin cytoskeleton | – |
| C=C1[C@@H](C)[C@H]2[C@H](Cc3ccccc3)NC(=O)[C@]23[C@H](OC(C)=O)/C=C/[C@@](C)(O)C(=O)[C@@H](C)C/C=C/[C@H]3[C@@H]1O [cytochalasin D] | smaller than control | expected effect in the phalloidin image | morphology of the chromatin in the Hoechst image (HeLa cells [2]): there is an effect in the morphology of the chromatin |
